How the values were obtained:
Format in all cases: cell-based
HeLa_Luc705 cells = experiment: Extracellular LDH release cell toxicity assay; conditions: 24-h treatment
Protocol: Further studies evaluating acute toxicity upon EEE4 treatment were performed by measuring extracellular lactate dehydrogenase (LDH) release as indicator of possible plasma membrane damage.
For measuring cell membrane damage, extracellular LDH was quantified in conditioned media collected 1 or 24 h after initiation of treatment. LDH quantification was performed following the manufacturer’s instructions (Thermo Fisher Scientific, catalog no. C20300), 0.1% Triton X-100 cell lysed was used as the positive control, and values were normalized to untreated control.

[1] = system: cell lines carrying an mCherry-GAL9-reporter; experiment: GAL9 puncta formation upon EEE dose escalation (images); conditions: dose escalation 0.31 to 10 μM
Protocol: We further studied endosomal leakage by quantifying GAL9 recruitment upon EEE dose escalation, from 0.31 to 10 μM. For this purpose, we used cell lines carrying an mCherry-GAL9-reporter, where endosomal rupture could be quantified by measuring GAL9 clustering as a puncta event representative of endosomal remodeling.
Experiments assessing GAL9 localization as an indicator for endosomal remodeling were performed as previously described[15] using 8× stablemCherry-GAL9 expressing cell lines, SHSY5Y, U2OS, 16HBE, NCI-H358, HuH7, HepG2, HEK293, and HeLa. For mCherry-GAL9 recruitment, 3,000 or 6,500 cells/well (depending upon cell line) were seeded into 384-well CellCarrier Ultra plates 24 h prior to treatment (PerkinElmer, catalog no. 6007558). An Echo 655T acoustic dispenser (Labcyte) was used for EEE dose-response preparation by transferring to the cell plate. At assay endpoints, cells were PBS washed, 4% paraformaldehyde fixed at room temperature […] (VWR, catalog no. 9713.1000), and nuclei stained with PBS +1 μg/mL Hoechst 33342 (Thermo Fisher Scientific, catalog no. H21492).
Imaging was performed using a spinning-disk confocal microscope (Yokogawa: CV8000) with a ×20w objective (numerical aperture 1.0). Cells and mCherry-GAL9 structure identification and quantification were done using Columbus image-analysis software (PerkinElmer version 2.9.0). […]

[2] = system: mCherry-GAL9 expressing U2OS cells; experiment: GAL9 recruitment assay, U2OS; conditions: calculated mean from >3 independent exp.
Summary of the method: (§1)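 Stable 8× mCherry-GAL9 cell lines seeded 24 h before acoustic dose-response compound addition; endpoint cells fixed with 4% paraformaldehyde, Hoechst-stained. Spinning-disk confocal imaging (×20 water objective) with image-based identification and quantification of mCherry-GAL9 structures as endosomal remodeling read-out. N = 3 experiments, duplicate wells.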

[3] = system: mCherry-GAL9 expressing 16HBE cells; experiment: GAL9 recruitment assay, 16HBE; conditions: calculated mean from >3 independent exp.
Summary of the method: as §1

HeLa cells = experiment: Cellular uptake of AF568-labeled SSO, flow cytometry; conditions: flow cytometry 0, 2, 4, 6 and 8h after EEE4-treatment
Protocol: Next, we set out to determine the mode of action of EEE4 on endosomal escape. We have previously shown with EEE2 that acidification of endosomes is critical to the activity of the EEE. […] Based on previous findings using EEE2, we hypothesized that simultaneous SSO + EEE4 uptake is needed to induce efficient splice-switching. To evaluate this hypothesis, we performed a parallel experiment using EEE4 dose response with either SSO co-treatment or 24-h SSO pre-incubation step. Luciferase readout was performed at five different time points after EEE4 addition, and splice-switching was observed under both experimental conditions. […] Finally, to ascertain that EEE4 indeed acts by enhancing the endosomal release of ASOs and not merely by increasing cellular uptake, a cellular uptake experiment was performed using AF568-labeled SSO.
Figure S1. Schematic representation of the splice-correction strategy used in pLUC/705 reporter. Luc705 reporters carry a pLuc/705 splice-switching luciferase gene, interrupted by a mutated b-globin intron. […]
Figure S2. […] HeLa ells were either SSO + EEE4 cotreated or 24h-SSO pre-incubated and then EEE4 treated, followed by readout using flow cytometry at 0, 2, 4, 6 and 8h after EEE4-treatment. Significant was calculated, for single variable using Mann-Whitney U test (*P <0.05, **P <0.005 and ***P […]

[4] = system: mCherry-GAL9 expressing HEK293 cells; experiment: GAL9 recruitment assay, HEK293; conditions: calculated mean from >3 independent exp.
Summary of the method: as §1

Structure (SMILES): COc1nn(C2CCNCC2)cc1Nc1ncc(F)c(-n2ccc3c(C#N)cccc32)n1 [EEE4]
- EEE concentration with slight increase in LDH release (HeLa_Luc705 cells): ≥ 3 µM
- EEE concentration with clear GAL9 puncta formation [1]: ≥ 1.25 µM
- Gal9 response compared to reference ([2]; EEE 0.31 µM): 0.014
- Gal9 response compared to reference ([2]; EEE 0.62 µM): 0.019
- Gal9 response compared to reference ([2]; EEE 1.25 µM): 0.083
- Gal9 response compared to reference ([2]; EEE 2.5 µM): 0.332
- Gal9 response compared to reference ([2]; EEE 5 µM): 0.572
- Gal9 response compared to reference ([2]; EEE 10 µM): 0.561
- Gal9 response compared to reference ([3]; EEE 0.31 µM): 0.021
- Gal9 response compared to reference ([3]; EEE 0.62 µM): 0.039
- Gal9 response compared to reference ([3]; EEE 1.25 µM): 0.395
- Gal9 response compared to reference ([3]; EEE 2.5 µM): 0.626
- Gal9 response compared to reference ([3]; EEE 5 µM): 0.501
- Gal9 response compared to reference ([3]; EEE 10 µM): 0.146
- Cellular uptake of AF568-labeled SSO in the presence of EEE (HeLa cells): did not observe any enhanced cellular uptake
- Gal9 response compared to reference ([4]; EEE 0.31 µM): 0.027
- Gal9 response compared to reference ([4]; EEE 0.62 µM): 0.243
- Gal9 response compared to reference ([4]; EEE 1.25 µM): 0.648
- Gal9 response compared to reference ([4]; EEE 2.5 µM): 0.678
- Gal9 response compared to reference ([4]; EEE 5 µM): 0.396
- Gal9 response compared to reference ([4]; EEE 10 µM): 0.222
